The results in this text go back to BindingDB's records for doi:10.1021/acschembio.5b01018 (Stony Brook University, 2016).

The test deals with T1, Tyrosine-protein kinase ABL1 [229-512] (Homo sapiens, UniProt P00519).
T1 construct: 229-512
T1 sequence (P00519 whole entry): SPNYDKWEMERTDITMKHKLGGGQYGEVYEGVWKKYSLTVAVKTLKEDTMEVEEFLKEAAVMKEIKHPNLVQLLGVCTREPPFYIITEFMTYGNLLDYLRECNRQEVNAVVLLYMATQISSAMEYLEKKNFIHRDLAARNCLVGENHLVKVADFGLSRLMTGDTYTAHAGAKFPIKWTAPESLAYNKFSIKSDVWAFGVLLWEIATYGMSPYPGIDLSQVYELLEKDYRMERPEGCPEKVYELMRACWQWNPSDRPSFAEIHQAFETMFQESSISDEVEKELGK
As to the kind of experiment: Kinome-Wide Inhibitor Profiling for Phosphorylated c-Abl.

Protocol: Inhibitor selectivity profiles were obtained through Luceome Biotechnologies (Tuscon, AZ). Each inhibitor was screened at 0.5 μM against phosphorylated c-Abl.

`Cc1nc(Nc2ncc(C(=O)Nc3cc(NC(=O)c4cccc(C(F)(F)F)c4)ccc3C)s2)cc(N2CCN(CCO)CC2)n1` [DAS-DFGO-II]: the Kd was 2 nM.
The molecule `Cc1nc(Nc2ncc(C(=O)Nc3cccc(NC(=O)c4cccc(C(F)(F)F)c4)c3)s2)cc(N2CCN(CCO)CC2)n1` [DAS-DFGO-I] had a Kd of 1.8 nM.

As usually defined, the Kd is the concentration at which binding is half-saturated. Lower therefore signals higher affinity.
